Data: US20030157541A1, “Regulation of human CycLT2-like GPCR protein” (Bayer Aktiengesellschaft, priority 2000, published 2003)

Target: T1, CysLT2 (Homo sapiens, UniProt Q9NS75)
T1 construct: expressed in transfected cells; membranes used
T1 sequence (Q9NS75 1-346): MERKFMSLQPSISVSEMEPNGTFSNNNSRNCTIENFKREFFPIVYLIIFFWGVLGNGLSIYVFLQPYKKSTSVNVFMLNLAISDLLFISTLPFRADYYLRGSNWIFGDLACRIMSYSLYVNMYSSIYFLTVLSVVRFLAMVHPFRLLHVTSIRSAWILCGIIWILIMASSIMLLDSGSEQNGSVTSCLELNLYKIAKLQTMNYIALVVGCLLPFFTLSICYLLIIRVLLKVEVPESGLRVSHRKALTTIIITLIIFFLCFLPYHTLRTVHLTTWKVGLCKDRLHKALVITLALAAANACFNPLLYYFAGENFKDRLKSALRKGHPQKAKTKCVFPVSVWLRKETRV
Experiment: Competition for [^3H]LTD4-specific binding to CysLT2 membranes
Protocol: Membrane preparation for CysLT2 receptor binding assay. Peak stable cells transformed with CysLT2 expression vector were maintained in D-MEM supplemented with 10% FCS and 2 μg/ml of puromycin. Cells were collected and kept at −80° C. until membrane preparation. Frozen cells were suspended in cold membrane preparation buffer (50 mM Tris-HCl pH 7.5, protease inhibitor mixture(#1873580, Roche)), and disrupted with Polytron (Cat.#PT10-35, Kinematica AG, Switzerland). Disrupted cells were centrifuged at 500×g for 5 minutes at 4° C. to remove the nuclear fraction, and supernatants were applied to high speed centrifugation (45,000×g, 15 minutes, 4° C.) to precipitate membrane fraction. After the supernatant was removed, membrane preparation buffer were added to the pellet and homogenized gently on ice. Glycerol (final conc.;10%) and bovine serum albumin (final conc.:0.5%, Cat#A-3059, Sigma) were added to the membrane suspension as stabilizer. Membrane suspension was then divided into small vials and frozen in liquid nitrogen. After 1 hour freezing, vials were kept at −80° C. until use.
At the end of the binding reaction, 100 μl of the reaction mixture was transferred to a 96-well filtration plate (Cat.#MAFB-N0B, Millipore), and washed 3 times with 200 μl/well of cold binding buffer. […] The specific binding (total binding—non-specific binding) was measured by liquid scintillation counter (TopCount™, Packard) and expressed as the relative binding (%) in the figure.
Inhibition assay using several antagonists.

inhibition of [^3H]LTD4 binding to CysLT2 (at concentrations up to 10^−6 M, 0.4 nM [^3H]-labeled LTD4)	IC50 [nM]	Structure (SMILES)
did not inhibit	–	CCCCC/C=C\C[C@@H](O)/C=C/C=C/C=C\[C@@H](O)CCCC(=O)O [LTB4, Leukotriene B4]
–	1000	O=C(O)CCCNC(=O)c1cc(C(=O)O)ccc1OCCCc1ccc(OCCCCOc2ccccc2)cc1 [Bay y8934]
–	2000	CCOC(=O)c1cn(-c2ccc(C3=CC(F)(F)C3(F)F)cc2)c2cc(F)c(F)cc2c1=O [Bay y9773]
